Peptide text beside a SMILES is read from it. * marks the point of attachment. Cbz = O=C(OCc1ccccc1)*
Tests used:
AXL [1] = assay: LZTR1-mediated destabilization of AXL in transfected HEK 293T cells (western blot); format: cell-based; settings: HEK 293T cells with AXL-HA and LZTR1-FLAG; FIG. 3B, 3D
Method: (§2) Cells were lysed in RIPA buffer (50 mM Tris-HCl, pH 7.5, 150 mM NaCl, 1 mM EDTA, 1% NP40, 0.5% sodium deoxycholate, 0.1% sodium dodecyl sulphate, 1.5 mM Na3VO4, 50 mM sodium fluoride, 10 mM sodium pyrophosphate, 10 mM β-glycerolphosphate and EDTA-free protease inhibitor cocktail (Roche)) or NP40 lysis buffer (50 mM Tris-HCl, pH 7.5, 150 mM NaCl, 1 mM EDTA, 1% NP40, 1.5 mM Na3VO4, 50 mM sodium fluoride, 10 mM sodium pyrophosphate, 10 mM β-glycerolphosphate and EDTA-free protease inhibitor cocktail (Roche)). Lysates were centrifuged 14,000 r.p.m. for 15 min at 4° C. and supernatant were collected. […] Beads were washed with lysis buffer four times and eluted in 2×SDS sample buffer. Immunoprecipitates or lysates were separated by SDS-PAGE and transferred to polyvinylidene difluoride or nitrocellulose membranes. Membranes were blocked in TBS-T (0.1% Tween20) with 5% non-fat milk or BSA and probed with primary antibodies.

RIT1 = assay: LZTR1-mediated reduction of RIT1 in transfected HEK 293T cells (western blot); format: cell-based; settings: HEK 293T cells with FLAG-RIT1 and LZTR1-FLAG; FIG. 10A, 10C
Method: as §2

EGFR [2] = assay: LZTR1-mediated destabilization of EGFR in transfected HEK 293T cells (western blot); format: cell-based; settings: HEK 293T cells with EGFR-GFP and LZTR1-FLAG; FIG. 3A, 3C
Method: as §2

EGFR [3] = assay: Ubiquitylation assay of EGFR in HEK 293T cells; format: cell-based; settings: MLN4924 1 μM, FIG. 3E
Method: (§1) 293T and Hela cells were transfected with plasmid expressing EGFR-GFP, HA-Ub and LZTR1-FLAG as indicated in figures and treated with MLN4924 (1 μM), chloroquine (CQ, 100 μM), MG132 (20 μM), or EGF (20 ng/ml or 100 ng/ml) and ubiquitylation assay was performed under denaturing condition. Cells were lysed in 1% SDS and boiled at 100° C. for 10 min. Lysates were diluted with tris buffered saline containing 1% N P40 and centrifuged 14000 r.p.m. for 15 min at 4° C. Immunoprecipitation was performed using 500 μg to 1 mg of cellular lysates using HA affinity gel (Sigma, E6779), AXL or EGFR antibodies at 4° C. overnight followed by protein G/A beads for 90 min at 4° C. […] Protein samples were separated by SDS-PAGE and transferred to PV DF membrane and analyzed by western blot.

[4] = system: schwannoma-like cells from Lztr1fl/fl;Cdkn2Afl/fl;GFAP-Cre+ mice (E0954); assay: Clonogenic assay of schwannoma-like cells; format: cell-based, mouse; settings: single dose; 72 hr treatment; FIG. 15C-F
Method: 500 cells were seeded in triplicate wells of 6-well plates. […] Cells were stained with crystal violet and colonies were counted.

AXL [5] = assay: Ubiquitylation assay of AXL in Hela cells; format: cell-based; settings: chloroquine 100 μM, MG132 20 μM, FIG. 3F
Method: as §1

[6] = system: subcutaneous tumors of schwannoma-like cells from Lztr1fl/fl;Cdkn2Afl/fl;GFAP-Cre+ mice (E0954); format: in vivo; settings: single RTK inhibitor; summary in the discussion
Method: Mice were weighted daily. Tumor diameters were measured every 2 days with caliper and tumor volumes estimated using the formula: width2×length/2=V (mm3). Mice were euthanized when the tumor size reached 2,000 mm3 or if the skin was ulcerated, according to IACUC recommendation. All experiments were performed according to the guidelines of the Institutional Animal Care and Use Committee at Columbia University.

Structure (SMILES): NS(=O)(=O)OC[C@@H]1C[C@@H](n2ccc3c(N[C@H]4CCc5ccccc54)ncnc32)C[C@@H]1O [MLN4924]
- LZTR1-mediated destabilization of AXL (AXL [1]): rescued
- RIT1 reduction by LZTR1 (RIT1): rescued
- LZTR1-mediated destabilization of EGFR (EGFR [2]): rescued
- LZTR1-increased formation of high molecular weight polyubiquitylated EGFR (EGFR [3]): abolished

Structure (SMILES): C=CC(=O)Nc1cc(Nc2nccc(-c3cn(C)c4ccccc34)n2)c(OC)cc1N(C)CCN(C)C [osimertinib]
- clonogenicity [4]: ineffective

Structure (SMILES): CC(C)C[C@@H](C=O)NC(=O)[C@H](CC(C)C)NC(=O)[C@H](CC(C)C)NC(=O)OCc1ccccc1 [MG132] (Cbz-Leu-Leu-Leu-aldehyde)
- LZTR1-increased polyubiquitylated species of AXL (AXL [5]): ineffective

Structure (SMILES): Nc1nc(Nc2ccc3c(c2)CC[C@@H](N2CCCC2)CC3)nn1-c1cc2c(nn1)-c1ccccc1CCC2 [bemcentinib]
- clonogenicity [4]: ineffective
- therapeutic effect of single treatment [6]: minimal

Structure (SMILES): CN(C)C/C=C/C(=O)Nc1cc2c(Nc3ccc(F)c(Cl)c3)ncnc2cc1O[C@H]1CCOC1 [afatinib]
- clonogenicity [4]: ineffective

Structure (SMILES): CC(C)C[C@H](NC(=O)[C@H](Cc1ccccc1)NC(=O)c1cnccn1)B(O)O [bortezomib]
- RIT1 reduction by LZTR1 (RIT1): rescued

Structure (SMILES): CO/C1=C\C(C)=C\[C@@H](C)[C@@H](O)[C@@H](C)C/C(C)=C/C=C/[C@H](OC)[C@@H]([C@@H](C)[C@@H](O)[C@H](C)[C@@]2(O)C[C@@H](O)[C@H](C)[C@@H](C(C)C)O2)OC1=O [bafilomycin A1]
- LZTR1-mediated destabilization of AXL (AXL [1]): relieved
- LZTR1-mediated destabilization of EGFR (EGFR [2]): relieved

Structure (SMILES): CCN(CC)CCCC(C)Nc1ccnc2cc(Cl)ccc12 (stereo not shown) [chloroquine]
- LZTR1-increased polyubiquitylated species of AXL (AXL [5]): accumulated at much higher levels

From patent publication US20250262210A1, “LZTR1 MUTANT TUMORS AND METHODS THEREOF” (The Trustees of Columbia University in the City of New York, priority 2022, published 2025)
